Data: PMC4774911, “Biochemical Screening of Five Protein Kinases from Plasmodium falciparum against 14,000 Cell-Active Compounds” (PLoS ONE, 2016)
Values joined by “and” are separate entries in the source; they are usually repeats but may differ in a detail not shown here. Equal entries are not always repeated.

Experiments:
Experiment in all cases: biochemical
BTK = BTK (Homo sapiens, UniProt Q06187)
CIT = CIT (Homo sapiens, UniProt O14578)
MAP2K1 = MAP2K1 (Homo sapiens, UniProt Q02750)
MAP3K2 = molecular target: T1, MAP3K2 (Homo sapiens, UniProt Q9Y2U5)
T1 sequence (Q9Y2U5 1-619): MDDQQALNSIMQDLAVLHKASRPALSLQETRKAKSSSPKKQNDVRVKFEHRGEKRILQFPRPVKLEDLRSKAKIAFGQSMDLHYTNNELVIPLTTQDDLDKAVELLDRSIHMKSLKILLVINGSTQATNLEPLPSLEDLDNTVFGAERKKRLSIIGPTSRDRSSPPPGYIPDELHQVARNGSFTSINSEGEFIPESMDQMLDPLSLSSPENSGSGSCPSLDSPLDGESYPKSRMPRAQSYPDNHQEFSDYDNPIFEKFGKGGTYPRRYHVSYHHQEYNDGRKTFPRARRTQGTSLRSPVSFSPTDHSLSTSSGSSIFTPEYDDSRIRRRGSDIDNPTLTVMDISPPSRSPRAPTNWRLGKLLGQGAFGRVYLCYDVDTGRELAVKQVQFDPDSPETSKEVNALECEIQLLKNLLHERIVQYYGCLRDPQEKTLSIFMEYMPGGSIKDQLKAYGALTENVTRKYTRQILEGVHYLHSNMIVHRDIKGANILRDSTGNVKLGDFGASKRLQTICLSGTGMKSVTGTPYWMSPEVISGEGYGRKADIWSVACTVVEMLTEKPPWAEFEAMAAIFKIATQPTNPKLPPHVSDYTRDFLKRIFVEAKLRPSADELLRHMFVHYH

MAP3K7 = molecular target: T2, MAP3K7 (Homo sapiens, UniProt O43318)
T2 sequence (O43318 1-606): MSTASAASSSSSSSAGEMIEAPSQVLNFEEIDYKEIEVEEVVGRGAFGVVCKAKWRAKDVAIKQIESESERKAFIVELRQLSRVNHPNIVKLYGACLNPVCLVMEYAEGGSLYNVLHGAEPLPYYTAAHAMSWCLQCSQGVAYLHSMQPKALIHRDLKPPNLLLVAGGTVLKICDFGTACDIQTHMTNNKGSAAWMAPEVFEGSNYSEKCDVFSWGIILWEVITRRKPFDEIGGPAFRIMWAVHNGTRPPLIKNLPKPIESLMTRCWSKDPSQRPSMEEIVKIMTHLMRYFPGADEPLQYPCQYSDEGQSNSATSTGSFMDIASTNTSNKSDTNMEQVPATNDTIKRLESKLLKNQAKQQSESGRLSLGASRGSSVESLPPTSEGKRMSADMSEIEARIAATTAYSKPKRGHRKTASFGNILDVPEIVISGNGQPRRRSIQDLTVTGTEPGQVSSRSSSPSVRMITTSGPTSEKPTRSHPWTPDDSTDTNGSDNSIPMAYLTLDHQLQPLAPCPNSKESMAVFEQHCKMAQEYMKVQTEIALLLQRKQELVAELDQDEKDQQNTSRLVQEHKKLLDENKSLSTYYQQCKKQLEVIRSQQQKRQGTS

OXSR1 = OXSR1 (Homo sapiens, UniProt O95747)
ULK3 = molecular target: T3, ULK3 (Homo sapiens, UniProt Q6PHR2)
T3 sequence (Q6PHR2 1-472): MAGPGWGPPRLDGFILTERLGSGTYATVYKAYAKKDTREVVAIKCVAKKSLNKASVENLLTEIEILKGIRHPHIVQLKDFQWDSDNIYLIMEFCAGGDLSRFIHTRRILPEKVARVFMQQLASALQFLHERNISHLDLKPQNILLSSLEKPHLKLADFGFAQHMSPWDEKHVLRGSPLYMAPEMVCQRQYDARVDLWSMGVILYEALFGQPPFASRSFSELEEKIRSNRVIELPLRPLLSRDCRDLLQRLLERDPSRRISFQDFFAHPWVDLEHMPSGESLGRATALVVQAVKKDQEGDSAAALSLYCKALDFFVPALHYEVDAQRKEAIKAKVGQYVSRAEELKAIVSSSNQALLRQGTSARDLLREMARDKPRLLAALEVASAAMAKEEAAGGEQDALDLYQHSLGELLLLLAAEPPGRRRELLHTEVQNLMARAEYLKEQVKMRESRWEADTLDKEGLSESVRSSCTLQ

OXSR1, sequence (O95747 whole entry): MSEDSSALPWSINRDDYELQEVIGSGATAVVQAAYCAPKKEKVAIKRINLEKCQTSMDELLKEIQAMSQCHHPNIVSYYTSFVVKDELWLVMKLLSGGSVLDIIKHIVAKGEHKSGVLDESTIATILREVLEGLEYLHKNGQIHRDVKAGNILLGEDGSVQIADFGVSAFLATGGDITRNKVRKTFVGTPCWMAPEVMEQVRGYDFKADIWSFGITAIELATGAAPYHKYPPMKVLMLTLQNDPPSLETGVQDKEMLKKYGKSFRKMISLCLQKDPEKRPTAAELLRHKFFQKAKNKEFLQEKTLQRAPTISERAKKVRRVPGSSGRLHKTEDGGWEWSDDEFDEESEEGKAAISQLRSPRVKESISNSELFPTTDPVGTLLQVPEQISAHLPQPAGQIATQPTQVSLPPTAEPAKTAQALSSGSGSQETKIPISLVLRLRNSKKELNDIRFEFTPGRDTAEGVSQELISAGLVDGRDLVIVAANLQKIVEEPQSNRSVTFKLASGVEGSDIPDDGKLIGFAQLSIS
CIT, sequence (O14578 whole entry): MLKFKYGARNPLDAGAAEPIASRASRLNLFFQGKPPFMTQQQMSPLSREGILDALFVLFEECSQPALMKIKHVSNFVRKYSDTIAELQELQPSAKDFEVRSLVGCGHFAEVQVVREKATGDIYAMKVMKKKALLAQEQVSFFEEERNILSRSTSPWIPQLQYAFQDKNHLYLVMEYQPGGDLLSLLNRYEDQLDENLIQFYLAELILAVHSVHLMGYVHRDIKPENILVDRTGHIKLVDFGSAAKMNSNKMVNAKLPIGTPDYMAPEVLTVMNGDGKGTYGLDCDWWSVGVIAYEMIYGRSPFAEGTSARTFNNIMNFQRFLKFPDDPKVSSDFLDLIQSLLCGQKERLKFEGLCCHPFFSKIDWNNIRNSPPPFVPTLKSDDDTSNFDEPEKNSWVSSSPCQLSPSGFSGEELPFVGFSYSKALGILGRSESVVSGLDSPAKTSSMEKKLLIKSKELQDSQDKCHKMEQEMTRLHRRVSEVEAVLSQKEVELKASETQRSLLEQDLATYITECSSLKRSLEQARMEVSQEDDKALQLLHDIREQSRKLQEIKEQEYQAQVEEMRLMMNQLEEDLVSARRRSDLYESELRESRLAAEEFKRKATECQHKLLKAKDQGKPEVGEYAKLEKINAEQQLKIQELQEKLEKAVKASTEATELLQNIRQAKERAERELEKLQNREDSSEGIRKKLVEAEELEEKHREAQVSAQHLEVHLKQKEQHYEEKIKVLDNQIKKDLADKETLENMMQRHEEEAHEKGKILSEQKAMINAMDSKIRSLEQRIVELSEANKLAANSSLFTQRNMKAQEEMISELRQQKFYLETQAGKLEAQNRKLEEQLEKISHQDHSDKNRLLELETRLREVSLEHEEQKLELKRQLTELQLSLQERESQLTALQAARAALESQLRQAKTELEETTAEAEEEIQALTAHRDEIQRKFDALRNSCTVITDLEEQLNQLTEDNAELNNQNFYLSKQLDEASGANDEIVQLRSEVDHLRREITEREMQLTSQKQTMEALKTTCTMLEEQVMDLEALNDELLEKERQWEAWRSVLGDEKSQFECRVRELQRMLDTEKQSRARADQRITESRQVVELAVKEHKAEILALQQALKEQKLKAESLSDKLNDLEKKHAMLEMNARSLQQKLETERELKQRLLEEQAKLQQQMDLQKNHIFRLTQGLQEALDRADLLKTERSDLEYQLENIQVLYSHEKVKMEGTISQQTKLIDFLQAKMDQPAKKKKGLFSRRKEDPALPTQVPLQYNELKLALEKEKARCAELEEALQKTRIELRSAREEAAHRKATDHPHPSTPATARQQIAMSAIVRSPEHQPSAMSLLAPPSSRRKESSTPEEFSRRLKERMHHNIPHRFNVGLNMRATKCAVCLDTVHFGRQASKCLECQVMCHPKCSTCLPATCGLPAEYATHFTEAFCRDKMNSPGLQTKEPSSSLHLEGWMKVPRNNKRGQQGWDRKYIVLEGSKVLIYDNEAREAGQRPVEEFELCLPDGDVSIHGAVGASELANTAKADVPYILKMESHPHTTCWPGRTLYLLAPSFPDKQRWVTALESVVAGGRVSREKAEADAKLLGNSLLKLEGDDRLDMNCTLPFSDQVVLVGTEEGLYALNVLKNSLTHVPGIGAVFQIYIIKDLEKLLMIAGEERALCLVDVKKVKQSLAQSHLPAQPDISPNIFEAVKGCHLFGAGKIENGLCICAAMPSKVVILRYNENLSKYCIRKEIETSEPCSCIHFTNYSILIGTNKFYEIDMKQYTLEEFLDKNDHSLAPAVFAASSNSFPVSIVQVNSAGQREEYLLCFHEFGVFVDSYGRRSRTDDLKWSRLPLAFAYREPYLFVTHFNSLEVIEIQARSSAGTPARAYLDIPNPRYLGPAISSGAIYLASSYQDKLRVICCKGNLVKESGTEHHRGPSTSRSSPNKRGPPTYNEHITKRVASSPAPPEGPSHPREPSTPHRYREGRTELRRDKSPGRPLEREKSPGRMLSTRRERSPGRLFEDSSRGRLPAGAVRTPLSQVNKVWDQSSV
MAP2K1, sequence (Q02750 whole entry): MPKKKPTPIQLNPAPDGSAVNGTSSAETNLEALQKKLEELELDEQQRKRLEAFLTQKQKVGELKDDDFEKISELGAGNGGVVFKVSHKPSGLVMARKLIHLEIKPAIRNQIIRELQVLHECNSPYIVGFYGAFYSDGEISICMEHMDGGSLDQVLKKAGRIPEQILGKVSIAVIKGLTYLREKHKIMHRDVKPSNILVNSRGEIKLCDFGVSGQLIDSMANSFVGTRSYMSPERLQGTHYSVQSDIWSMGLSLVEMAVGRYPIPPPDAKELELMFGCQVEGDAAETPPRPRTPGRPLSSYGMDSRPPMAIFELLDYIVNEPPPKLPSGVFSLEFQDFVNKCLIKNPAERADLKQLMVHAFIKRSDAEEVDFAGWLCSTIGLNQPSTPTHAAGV
BTK, sequence (Q06187 whole entry): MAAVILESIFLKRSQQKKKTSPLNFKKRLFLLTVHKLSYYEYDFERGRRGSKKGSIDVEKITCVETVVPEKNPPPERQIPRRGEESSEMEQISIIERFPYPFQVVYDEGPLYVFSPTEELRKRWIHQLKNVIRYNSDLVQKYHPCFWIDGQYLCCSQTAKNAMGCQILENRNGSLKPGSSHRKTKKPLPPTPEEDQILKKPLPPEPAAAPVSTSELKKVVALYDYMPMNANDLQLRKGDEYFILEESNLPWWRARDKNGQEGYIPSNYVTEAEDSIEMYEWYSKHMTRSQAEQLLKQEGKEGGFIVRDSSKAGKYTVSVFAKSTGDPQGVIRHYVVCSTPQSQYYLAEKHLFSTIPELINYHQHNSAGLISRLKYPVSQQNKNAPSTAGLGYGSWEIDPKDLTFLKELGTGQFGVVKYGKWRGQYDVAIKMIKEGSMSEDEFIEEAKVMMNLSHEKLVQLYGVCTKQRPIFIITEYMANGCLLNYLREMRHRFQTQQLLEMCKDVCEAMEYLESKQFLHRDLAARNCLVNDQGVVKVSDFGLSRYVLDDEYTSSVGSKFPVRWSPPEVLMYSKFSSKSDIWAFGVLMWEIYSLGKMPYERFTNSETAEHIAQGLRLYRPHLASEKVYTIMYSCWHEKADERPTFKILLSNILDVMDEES

## CN(C)CC(O)COc1ccc(Nc2ncc([N+](=O)[O-])c(Nc3ccccc3O)n2)cc1.O=C(O)C(F)(F)F (stereo not drawn) [TCMDC-141399]
BTK
  IC50: > 20 µM
CIT
  IC50: 4.4 µM
MAP2K1
  IC50: > 20 µM
MAP3K2
  IC50: > 20 µM
MAP3K7
  IC50: > 20 µM
OXSR1
  IC50: > 20 µM
ULK3
  IC50: > 20 µM

## Cl.NCC1(c2nc(-c3ccc(Cl)c(O)c3)c(-c3ccncc3)[nH]2)CCCCC1 [TCMDC-141154]
BTK
  IC50: > 20 µM
CIT
  IC50: 0.16 µM and 0.28 µM
MAP2K1
  IC50: 9.7 µM and > 20 µM
MAP3K2
  IC50: 1.2 µM
MAP3K7
  IC50: > 20 µM
OXSR1
  IC50: > 20 µM
ULK3
  IC50: > 20 µM

## CN1CCN(c2ccc(Nc3ncc(C#N)c(Nc4ccccc4C(N)=O)n3)cc2)CC1.Cl [TCMDC-134116]
BTK
  IC50: 0.6 µM and 0.67 µM
CIT
  IC50: 5.7 µM and 5.8 µM
MAP2K1
  IC50: 1.8 µM and 1.6 µM
MAP3K2
  IC50: 0.49 µM
MAP3K7
  IC50: 2 µM and 1.1 µM
OXSR1
  IC50: 0.081 µM and 0.13 µM
ULK3
  IC50: 0.06 µM and 0.095 µM
